Measured values reported in ChEMBL document CHEMBL3045803, “Preparation and root growth-inhibitory activity of N-substituted 2-(2-chloroacetamido)-3-(furan-2-yl)propanamides” (2005).

System: Brassica rapa subsp. oleifera
Assay: Inhibition of Brassica rapa subsp. oleifera root growth assessed as reduction of root length at 5 x 10^-5 M after 7 days by germination assay relative to control
Type: functional
Conditions: 168 h

| Compound | inhibition at 50 µM [%] |
| --- | --- |
| Cc1cnc(NC(=O)C(Cc2ccco2)NC(=O)CCl)s1 (centres undefined) | 20 |
| O=C(CCl)NC(Cc1ccco1)C(=O)Nc1nc2ccccc2s1 (centres undefined) | 58 |
| O=C(CCl)NC(Cc1ccco1)C(=O)Nc1nc2c(Cl)cccc2s1 (centres undefined) | 42 |
| CCOc1ccc2nc(NC(=O)C(Cc3ccco3)NC(=O)CCl)sc2c1 (centres undefined) | 34 |
| O=C(CCl)NC(Cc1ccco1)C(=O)Nc1ccccc1 (centres undefined) | 52 |
| O=C(CCl)NC(Cc1ccco1)C(=O)Nc1cccc(F)c1 (centres undefined) | 33 |
| O=C(CCl)NC(Cc1ccco1)C(=O)Nc1ccc(F)cc1 (centres undefined) | 37 |
| O=C(CCl)NC(Cc1ccco1)C(=O)Nc1cccc(Cl)c1 (centres undefined) | 30 |
| O=C(CCl)NC(Cc1ccco1)C(=O)Nc1ccc(Cl)cc1 (centres undefined) | 19 |
| O=C(CCl)NC(Cc1ccco1)C(=O)Nc1cccc(Br)c1 (centres undefined) | 42 |
| O=C(CCl)NC(Cc1ccco1)C(=O)Nc1ccc(Br)cc1 (centres undefined) | 29 |
| CCc1ccccc1NC(=O)C(Cc1ccco1)NC(=O)CCl (centres undefined) | 20 |
| CCc1cccc(NC(=O)C(Cc2ccco2)NC(=O)CCl)c1 (centres undefined) | 35 |
| CCc1ccc(NC(=O)C(Cc2ccco2)NC(=O)CCl)cc1 (centres undefined) | 41 |
| CCc1cccc(CC)c1NC(=O)C(Cc1ccco1)NC(=O)CCl (centres undefined) | 76 |
| CCc1cccc(C)c1NC(=O)C(Cc1ccco1)NC(=O)CCl (centres undefined) | 67 |
| Cc1cccc(C)c1NC(=O)C(Cc1ccco1)NC(=O)CCl (centres undefined) | 62 |
| O=C(CCl)NC(Cc1ccco1)C(=O)Nc1nccs1 (centres undefined) | 57 |
| O=C(CCl)NC(Cc1ccco1)C(=O)Nc1ncc(Br)s1 (centres undefined) | 69 |
| O=C(CCl)NC(Cc1ccco1)C(=O)Nc1ncc([N+](=O)[O-])s1 (centres undefined) | 37 |
| Cc1csc(NC(=O)C(Cc2ccco2)NC(=O)CCl)n1 (centres undefined) | 56 |
| Cc1nc(NC(=O)C(Cc2ccco2)NC(=O)CCl)sc1C (centres undefined) | 25 |
| O=C(CCl)NC(Cc1ccco1)C(=O)Nc1nc(-c2ccc(Cl)cc2)cs1 (centres undefined) | 52 |
| O=C(O)COc1ccc(Cl)cc1Cl [2,4-DICHLOROPHENOXYACETIC ACID] | 97 |
